Data on two compounds can be found in PMC9568543, “Bee-safe peptidomimetic acaricides achieved by comparative genomics” (Scientific Reports, 2022).

Test [1] concerns CHO cells, empty vector. As to the kind of experiment: Negative control, CHO cells transfected with the empty vector. Format: cell-based, Chinese hamster. The following applies: 10 µM. As to the method: The receptor was also tested with a variety of peptide analogs and peptidomimetics.
(§1) Approximately thirty hours after transfection, the cells were collected and preincubated with coelenterazine h for the functional assay, as previously described[30],[31],[52]. The ligands in serial dilutions were loaded into 96-well opaque plates. Cells treated with coelenterazine h were injected into each well on an Orion microplate luminometer (Berthold) luminescent plate reader. The luminescence was measured for 20 s immediately after the cell injections. Data analyses were performed to determine the accumulated luminescence value for 20 s after extraction of blank-well luminescence. A dose–response curve was generated and the EC50 (50% effective concentration) was calculated in Origin 7 (OriginLab) as described in Jiang et al.[31],[53]. The three biological replications were regressed for the dose–response curves with 95% confidence intervals (Table 1). For the tests of the second set of ligands, we used the cell line that stably expressed VdProctR, which were selected by Zeocin for 5 passages.

Test [2] deals with Bombyx mori larval gut. To be noted: cited from earlier work.
The test system of test [3] is honey bee FMRFamide receptor. In words: Activity on honey bee FMRFamide receptor expressed in CHO cells. The class given is cell-based, Apis mellifera. Here is the method:
as §1, with “Honey bee FMRFamide receptor was cloned and expressed in the same system as described for the proctolin receptor. […] Approximately” for “Approximately”, “A dose–response curve was generated and the EC50 (50% effective concentration) was calculated in Origin 7 (OriginLab) as described in Jiang et al.[31],[53].” left out, “dose-response” for “dose–response”

Test [4] deals with honey bee queen. To be noted: injection, 1 µL containing 1 µg; cited from earlier work.
For test [5], the system named is Varroa mites. As to the kind of experiment: Varroa mite feeding assay (drop on gnathosoma), paralysis/death. Format: in vivo, Varroa destructor. The following applies: 48 h; 200 nL on gnathosoma; 0.1 nM (methods) / 0.01 nM (Fig. 4 legend). Here is the method: In the continued bioassay, the toxicities were assessed by counting paralysis/death in feeding assay. A drop of 200 nL solution was placed on the gnathosoma of an immobilized mite for forced feedings of active components. Low levels of acute toxicities of peptidomimetics were indicated by lower than 50% effects within 6 h after the treatments. The toxic effects were increased over time and reached 100% of the effects in the 48 h treatments of 2336 (Fig. 4, ANOVA p < 0.05). In H2O control, about 10% or less of the number of individuals were paralyzed/dead. Accurate cause of the paralysis/death remains yet to be studied.
Adult female Varroa mites were collected using a sugar roll method from honey bee hives located at the East Campus apiary of the University of Nebraska (Lincoln, NE USA) in September–October 2019. The hives were not treated with chemicals for honey bee parasites or pathogens. The mites were sorted in the laboratory with a paint brush and tested within 4 h post collection. […] The number of affected (i.e., dead and/paralyzed) was observed and recorded at 1, 2, 6, 12, 24, and 48 h. The percent effect for each treatment was analyzed using a one-way analysis of variance (ANOVA) with a Tukey’s post-hoc test (GraphPad Prism, La Jolla, CA; p < 0.05).

Test [6] concerns the target Varroa mite proctolin receptor (VdProctR) (Varroa destructor, UniProt A0A7T1TE40). As to the kind of experiment: Receptor activity assay (aequorin luminescence), CHO cells transiently expressing the receptor, first set of ligands. Format: cell-based. The following applies: activities at 1 μM and 10 μM. As to the method: as §1, with “A dose–response curve was generated and the EC50 (50% effective concentration) was calculated in Origin 7 (OriginLab) as described in Jiang et al.[31],[53].” left out

Where a SMILES comes first, the peptide text is derived from it. Where no end group is shown, it is not given here. [ ]: non-standard residue; d: D form. Oic = O=C(O)[C@@H]1C[C@@H]2CCCC[C@@H]2N1

Varroa mite proctolin receptor (VdProctR), sequence (A0A7T1TE40 entry or part of it): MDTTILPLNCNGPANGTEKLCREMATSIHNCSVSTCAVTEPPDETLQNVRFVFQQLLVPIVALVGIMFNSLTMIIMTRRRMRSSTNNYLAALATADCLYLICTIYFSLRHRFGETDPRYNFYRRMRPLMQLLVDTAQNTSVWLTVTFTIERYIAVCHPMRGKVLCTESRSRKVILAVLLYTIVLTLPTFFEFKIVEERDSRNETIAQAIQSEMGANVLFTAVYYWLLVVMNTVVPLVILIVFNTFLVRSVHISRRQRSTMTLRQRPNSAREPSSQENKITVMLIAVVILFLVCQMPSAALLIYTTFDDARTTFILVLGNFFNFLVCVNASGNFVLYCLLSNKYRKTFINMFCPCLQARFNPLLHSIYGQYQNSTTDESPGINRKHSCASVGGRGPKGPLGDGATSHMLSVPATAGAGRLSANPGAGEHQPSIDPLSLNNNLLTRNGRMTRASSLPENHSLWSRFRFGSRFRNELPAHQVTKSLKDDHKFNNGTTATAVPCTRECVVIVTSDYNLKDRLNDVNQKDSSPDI

With RYLPT [Proctolin, RYLPT], the “activity on empty-vector transfected cells” value in test [1] is recorded as “did not show any activity”. In test [2] (Bombyx mori larval hindgut), the “concentration required for hindgut contraction” value is reported as 180 µM. The “concentration required in the midgut to slightly reduce leucine uptake” value in test [2] (Bombyx mori larval midgut) is 10 µM. The “activity on honey bee FMRFamide receptor” value in test [3] is “no activities”. In addition, the “effect on egg-laying activity of the queen” value in test [4] is “increased the egg-laying activity”.
`CC(C)C[C@H](NC(=O)[C@H](Cc1ccc(O)cc1)NC(=O)[C@@H](N)CCCNC(=N)N)C(=O)N1[C@H](C(=O)N[C@H](C(=O)O)[C@@H](C)O)C[C@@H]2CCCC[C@@H]21` [Analog 2336, RYL[Oic]T] (H-RYL[Oic]T-OH; N-terminus and C-terminus assumed): the “effects (paralyzed or dead mites)” value in test [5] was 100%. Further, the “efficacy (maximal response) compared with proctolin” value in test [6] is “higher than that of proctolin”.
